Source: patent publication US12312332B2 (Merck Sharp & Dohme LLC., priority 2019, dated 2025)

Biological target: T1, human OX2R (Homo sapiens, UniProt O43614)
T1 construct: expressed in transfected cells; host or cells: Chinese hamster ovary (CHO) cells, kept under G418 selection
T1 sequence (O43614 1-444): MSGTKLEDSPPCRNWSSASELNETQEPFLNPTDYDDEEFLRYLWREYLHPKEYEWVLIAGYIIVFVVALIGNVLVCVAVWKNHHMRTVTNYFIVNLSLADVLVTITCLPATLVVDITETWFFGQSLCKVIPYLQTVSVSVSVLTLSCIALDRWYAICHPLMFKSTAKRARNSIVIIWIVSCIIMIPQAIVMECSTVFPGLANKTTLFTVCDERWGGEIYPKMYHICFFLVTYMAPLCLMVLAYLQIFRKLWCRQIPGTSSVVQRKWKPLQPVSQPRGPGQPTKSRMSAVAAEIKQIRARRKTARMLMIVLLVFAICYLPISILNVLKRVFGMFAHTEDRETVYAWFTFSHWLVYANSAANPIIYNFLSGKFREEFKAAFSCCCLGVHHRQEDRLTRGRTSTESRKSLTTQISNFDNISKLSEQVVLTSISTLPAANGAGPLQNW
Assay: IPOne (IP-One) orexin receptor agonist assay in CHO cells expressing human OX2R
Assay type: cell-based
Conditions: for EC50: CHO cells expressing human OX2R, IP-One detection, 2 hours incubation, four parameter logistic fit, read-out: OX2R Potency, EC50; for % max agonist effect (Emax): human OX2R, percentage of sample raw value/mean max effect (reference compound at 1 uM with 100% activity)

SMILES	EC50	% max agonist effect (Emax)
Cn1cc(N2CC[C@H](NS(C)(=O)=O)[C@@H]2CO[C@H]2CC[C@@H](c3ccccc3)CC2)cn1 (relative stereo) [Example 2, N-((CIS)-1-(1-methyl-1H-pyrazol-4-yl)-2-((((CIS)-4-phenylcyclohexyl)oxy)methyl)pyrrolidin-3-yl)methanesulfonamide]	896 nM	89.7%
COc1cccc(N2CC[C@H](NS(C)(=O)=O)[C@@H]2CO[C@H]2CC[C@@H](c3ccccc3)CC2)n1 [Example 152, N-((2R,3S)-1-(6-methoxypyridin-2-yl)-2-((((CIS)-4-phenylcyclohexyl)oxy)methyl)pyrrolidin-3-yl)methanesulfonamide]	346 nM	97.6%
CS(=O)(=O)N[C@H]1CCN(c2nc(Br)cs2)[C@H]1CO[C@H]1CC[C@@H](c2ccccc2)CC1 [Example 108, N-((2R,3S)-1-(4-bromothiazol-2-yl)-2-((((CIS)-4-phenylcyclohexyl)oxy)methyl)pyrrolidin-3-yl)methanesulfonamide]	1120 nM	97.4%
CS(=O)(=O)N[C@H]1CCN(c2ccon2)[C@H]1CO[C@H]1CC[C@@H](c2ccccc2)CC1 [Example 17, N-((2R,3S)-1-(isoxazol-3-yl)-2-((((CIS)-4-phenylcyclohexyl)oxy)methyl)pyrrolidin-3-yl)methanesulfonamide]	102 nM	100.4%
CS(=O)(=O)N[C@H]1CCN(c2cc(O)ncn2)[C@H]1CO[C@H]1CC[C@@H](c2ccccc2)CC1 [Example 150, N-((2R,3S)-1-(6-hydroxypyrimidin-4-yl)-2-((((CIS)-4-phenylcyclohexyl)oxy)methyl)pyrrolidin-3-yl)methanesulfonamide]	397 nM	99.4%
CS(=O)(=O)N[C@H]1CCN(c2cccnc2)[C@H]1CO[C@H]1CC[C@@H](c2ccccc2)CC1 [Example 20, N-((2R,3S)-2-((((CIS)-4-phenylcyclohexyl)oxy)methyl)-1-(pyridin-3-yl)pyrrolidin-3-yl)methanesulfonamide]	20.4 nM	101.0%
CS(=O)(=O)N[C@H]1CCN(c2cncc(C#N)c2)[C@H]1CO[C@H]1CC[C@@H](c2ccccc2)CC1 [Example 133, N-((2R,3S)-1-(5-cyanopyridin-3-yl)-2-((((CIS)-4-phenylcyclohexyl)oxy)methyl)pyrrolidin-3-yl)methanesulfonamide]	993 nM	100.3%
CS(=O)(=O)N[C@H]1CCN(c2cnccc2O)[C@H]1CO[C@H]1CC[C@@H](c2ccccc2)CC1 [Example 122, N-((2R,3S)-1-(4-hydroxypyridin-3-yl)-2-((((CIS)-4-phenylcyclohexyl)oxy)methyl)pyrrolidin-3-yl)methanesulfonamide]	38.3 nM	101%
COc1cccc(N2CC[C@H](NS(C)(=O)=O)[C@@H]2CO[C@H]2CC[C@@H](c3ccccc3)CC2)c1 [Example 146, N-((2R,3S)-1-(3-methoxyphenyl)-2-((((CIS)-4-phenylcyclohexyl)oxy)methyl)pyrrolidin-3-yl)methanesulfonamide]	1830 nM	84.6%
CS(=O)(=O)N[C@H]1CCN(c2cc(O)c(F)cn2)[C@H]1CO[C@H]1CC[C@@H](c2cccc(F)c2)CC1 [Example 99, N-((2R,3S)-1-(5-fluoro-4-hydroxypyridin-2-yl)-2-((((CIS)-4-(3-fluorophenyl)cyclohexyl)oxy)methyl)pyrrolidin-3-yl)methanesulfonamide]	0.27 nM	101.2%
CS(=O)(=O)N[C@H]1CCN(c2cccc(O)c2)[C@H]1CO[C@H]1CC[C@@H](c2ccccc2)CC1 [Example 155, N-((2R,3S)-1-(3-hydroxyphenyl)-2-((((CIS)-4-phenylcyclohexyl)oxy)methyl)pyrrolidin-3-yl)methanesulfonamide]	1860 nM	94.4%
Cc1ncc(N2CC[C@H](NS(C)(=O)=O)[C@@H]2CO[C@H]2CC[C@@H](c3ccccc3)CC2)n1C [Example 32, N-((2R,3S)-1-(1,2-dimethyl-1H-imidazol-5-yl)-2-((((CIS)-4-phenylcyclohexyl)oxy)methyl)pyrrolidin-3-yl)methanesulfonamide]	37 nM	100.2%
COc1ccnc(N2CC[C@H](NS(C)(=O)=O)[C@@H]2CO[C@H]2CC[C@@H](c3ccccc3)CC2)c1 [Example 73, N-((2R,3S)-1-(4-methoxypyridin-2-yl)-2-((((CIS)-4-phenylcyclohexyl)oxy)methyl)pyrrolidin-3-yl)methanesulfonamide]	105 nM	99.7%
CS(=O)(=O)N[C@H]1CCN(c2ncccc2O)[C@H]1CO[C@H]1CC[C@@H](c2ccccc2)CC1 [Example 135, N-((2R,3S)-1-(3-hydroxypyridin-2-yl)-2-((((CIS)-4-phenylcyclohexyl)oxy)methyl)pyrrolidin-3-yl)methanesulfonamide]	–	101.1%
Cc1ncc(N2CC[C@H](NS(C)(=O)=O)[C@@H]2CO[C@H]2CC[C@@H](c3ccccc3)CC2)cn1 [Example 60, N-((2R,3S)-1-(2-methylpyrimidin-5-yl)-2-((((CIS)-4-phenylcyclohexyl)oxy)methyl)pyrrolidin-3-yl)methanesulfonamide]	251 nM	100.0%
C[C@@H]1C[C@H](NS(C)(=O)=O)[C@H](CO[C@H]2CC[C@@H](c3cccc(F)c3)CC2)N1c1[nH]ccc(=O)c1F [Example 164, N-((2R,3S,5R)-1-(3-fluoro-4-oxo-1,4-dihydropyridin-2-yl)-2-((((CIS)-4-(3-fluorophenyl)cyclohexyl)oxy)methyl)-5-methylpyrrolidin-3-yl)methanesulfonamide]	0.72 nM	98.6%
COc1ccc(N2CC[C@H](NS(C)(=O)=O)[C@@H]2CO[C@H]2CC[C@@H](c3ccccc3)CC2)cn1 [Example 53, N-((2R,3S)-1-(6-methoxypyridin-3-yl)-2-((((CIS)-4-phenylcyclohexyl)oxy)methyl)pyrrolidin-3-yl)methanesulfonamide]	223 nM	100.6%
Cc1ccnc(N2CC[C@H](NS(C)(=O)=O)[C@@H]2CO[C@H]2CC[C@@H](c3ccccc3)CC2)c1 [Example 144, N-((2R,3S)-1-(4-methylpyridin-2-yl)-2-((((CIS)-4-phenylcyclohexyl)oxy)methyl)pyrrolidin-3-yl)methanesulfonamide]	794 nM	98%
Cc1nccc(N2CC[C@H](NS(C)(=O)=O)[C@@H]2CO[C@H]2CC[C@@H](c3ccccc3)CC2)n1 [Example 48, N-((2R,3S)-1-(2-methylpyrimidin-4-yl)-2-((((CIS)-4-phenylcyclohexyl)oxy)methyl)pyrrolidin-3-yl)methanesulfonamide]	6830 nM	77.3%
CS(=O)(=O)N[C@H]1CCN(c2cc(O)ncc2F)[C@H]1CO[C@H]1CC[C@@H](c2ccccc2)CC1 [Example 153, N-((2R,3S)-1-(5-fluoro-2-hydroxypyridin-4-yl)-2-((((CIS)-4-phenylcyclohexyl)oxy)methyl)pyrrolidin-3-yl)methanesulfonamide]	169 nM	100.8%
CS(=O)(=O)N[C@H]1CCN(c2nc(O)cs2)[C@H]1CO[C@H]1CC[C@@H](c2ccccc2)CC1 [Example 107, N-((2R,3S)-1-(4-hydroxythiazol-2-yl)-2-((((CIS)-4-phenylcyclohexyl)oxy)methyl)pyrrolidin-3-yl)methanesulfonamide]	676 nM	97.2%
C[C@@H]1C[C@H](NS(=O)(=O)N(C)C)[C@H](CO[C@H]2CC[C@@H](c3cccc(F)c3)CC2)N1c1cc(O)ccn1 [Example 157, N′-((2R,3S,5R)-2-((((CIS)-4-(3-fluorophenyl)cyclohexyl)oxy)methyl)-1-(4-hydroxypyridin-2-yl)-5-methylpyrrolidin-3-yl)-N,N-dimethyl-sulfamide]	0.25 nM	100.2%
CS(=O)(=O)N[C@H]1CCN(c2cnc3ccoc3c2)[C@H]1CO[C@H]1CC[C@@H](c2ccccc2)CC1 [Example 91, N-((2R,3S)-1-(furo[3,2-b]pyridin-6-yl)-2-((((CIS)-4-phenylcyclohexyl)oxy)methyl)pyrrolidin-3-yl)methanesulfonamide]	803 nM	99.0%
CS(=O)(=O)N[C@H]1CCN(c2ccnc(CO)c2)[C@H]1CO[C@H]1CC[C@@H](c2ccccc2)CC1 [Example 43, N-((2R,3S)-1-(2-(hydroxymethyl)pyridin-4-yl)-2-((((CIS)-4-phenylcyclohexyl)oxy)methyl)pyrrolidin-3-yl)methanesulfonamide]	3540 nM	90.4%
